From patent US10508120B2, “TYK2 inhibitors and uses thereof” (Nimbus Lakshmi, Inc., priority 2017, dated 2019)

How the values were obtained:
Tyk2 kinase domain (DH1) = Tyk2 kinase domain (DH1) (Homo sapiens (Human), UniProt P29597); experiment: Tyk2 Radioactive Kinase Assay; assay type: biochemical; settings: for inhibition at 10 µM: read-out: Tyk2 JH1% Inhibition @ 10 μM
Description: (§1) The Tyk2 and JAK2 radioactive kinase assay measures the percent inhibition at the Tyk2 kinase domain (DH1) and the percent inhibition at the JAK2 kinase domain (JH1). Results of the assay are expressed as percent inhibition at 10 μM.

JAK2 kinase domain (JH1) = JAK2 kinase domain (JH1) (Homo sapiens (Human), UniProt O60674); experiment: JAK2 Radioactive Kinase Assay; assay type: biochemical; settings: for inhibition at 10 µM: read-out: JAK2 JH1% Inhibition @ 10 μM
Sequence of JAK2 kinase domain (JH1) (O60674 849-1124): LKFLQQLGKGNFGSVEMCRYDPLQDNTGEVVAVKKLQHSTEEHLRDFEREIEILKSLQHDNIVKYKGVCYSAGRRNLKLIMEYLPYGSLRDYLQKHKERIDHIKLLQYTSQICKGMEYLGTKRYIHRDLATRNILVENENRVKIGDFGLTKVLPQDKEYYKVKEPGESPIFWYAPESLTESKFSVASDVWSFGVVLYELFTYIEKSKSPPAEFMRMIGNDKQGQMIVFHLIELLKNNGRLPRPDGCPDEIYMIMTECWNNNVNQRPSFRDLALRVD
Description: as §1

Sequence of Tyk2 kinase domain (DH1) (P29597 897-1176): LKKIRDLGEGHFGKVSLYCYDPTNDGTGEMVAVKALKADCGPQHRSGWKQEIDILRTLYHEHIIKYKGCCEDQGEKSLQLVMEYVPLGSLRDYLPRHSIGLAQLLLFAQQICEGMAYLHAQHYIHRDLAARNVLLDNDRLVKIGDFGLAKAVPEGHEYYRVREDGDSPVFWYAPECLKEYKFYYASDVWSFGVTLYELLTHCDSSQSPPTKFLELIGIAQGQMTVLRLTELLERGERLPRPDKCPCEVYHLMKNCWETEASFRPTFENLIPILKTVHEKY

| SMILES | Tyk2 JH1% Inhibition @ 10 μM (Tyk2 kinase domain (DH1); compound at 10 μM, ATP 10 μM) | JAK2 JH1% Inhibition @ 10 μM (JAK2 kinase domain (JH1); compound at 10 μM, ATP 10 μM) | also measured |
| --- | --- | --- | --- |
| CNc1cc(Nc2cccc([C@H]3CCCOC3)n2)nc2c(C(=O)N[C@H]3CC[C@@H]3O)cnn12 [I-666] | A (percent inhibition at 10 μM lower than 50) | A (percent inhibition at 10 μM lower than 50) |  |
| CNc1cc(Nc2cccn(-c3nc(C)co3)c2=O)nc2c(C(=O)N[C@H]3CC[C@@H]3O)cnn12 [I-769] | A (percent inhibition at 10 μM lower than 50) | A (percent inhibition at 10 μM lower than 50) |  |
| CNc1cc(Nc2cccn([C@@H]3CCC[C@@H](O)C3)c2=O)nc2c(C(=O)N[C@@H]3C[C@@H]3F)cnn12 [I-983] |  |  | Tyk2 JH1% Inhibition @ 10 μM (Tyk2 kinase domain (DH1); 10 μM compound, 10 μM ATP): A (percent inhibition at 10 μM lower than 50); JAK2 JH1% Inhibition @ 10 μM (JAK2 kinase domain (JH1); 10 μM compound, 10 μM ATP): A (percent inhibition at 10 μM lower than 50) |
| CNc1cc(Nc2cccn([C@@H]3CC[C@H]3O)c2=O)nc2c(C(=O)NC3CC3)cnn12 [I-802] | A (percent inhibition at 10 μM lower than 50) | A (percent inhibition at 10 μM lower than 50) |  |
| CNc1cc(-c2cn(C(C)C)c3ncccc23)nc2c(C(=O)N[C@@H]3C[C@H]3O)cnn12 (stereo in doubt) [I-732, N-((1R,2R)-2-hydroxycyclopropyl)-5-(1-isopropyl-1H-pyrrolo[2,3-b]pyridin-3-yl)-7-(methylamino)pyrazolo[1,5-a]pyrimidine-3-carboxamide] | A (percent inhibition at 10 μM lower than 50) | A (percent inhibition at 10 μM lower than 50) |  |
| CNc1cc(Nc2cccn([C@H]3CC[C@@H]3OC)c2=O)nc2c(C(=O)NC3CC3)cnn12 [I-936] |  |  | Tyk2 JH1% Inhibition @ 10 μM (Tyk2 kinase domain (DH1); 10 μM compound, 10 μM ATP): A (percent inhibition at 10 μM lower than 50); JAK2 JH1% Inhibition @ 10 μM (JAK2 kinase domain (JH1); 10 μM compound, 10 μM ATP): A (percent inhibition at 10 μM lower than 50) |
| CNc1cc(Nc2cccc([C@@H]3CCCCO3)n2)nc2c(C(=O)N[C@@H]3CC[C@@H]3O)cnn12 [I-646] | A (percent inhibition at 10 μM lower than 50) | A (percent inhibition at 10 μM lower than 50) |  |
| CNc1cc(Nc2cccc(N3CCCC3=O)n2)nc2c(C(=O)N[C@@H]3CC[C@@H]3O)cnn12 [I-970] |  |  | inhibition at 10 µM (Tyk2 kinase domain (DH1); 10 μM compound, 10 μM ATP): < 50%; inhibition at 10 µM (JAK2 kinase domain (JH1); 10 μM compound, 10 μM ATP): < 50% |
| CNc1cc(Nc2cccn([C@H]3CCC[C@@H](OC)C3)c2=O)nc2c(C(=O)N[C@@H]3C[C@@H]3F)cnn12 [I-839] |  |  | inhibition at 10 µM (Tyk2 kinase domain (DH1); 10 μM compound, 10 μM ATP): < 50%; inhibition at 10 µM (JAK2 kinase domain (JH1); 10 μM compound, 10 μM ATP): < 50% |
| CNc1cc(Nc2cccn([C@@H]3CCCOC3)c2=O)nc2c(C(=O)N[C@H]3CC[C@@H]3O)cnn12 [I-726] | A (percent inhibition at 10 μM lower than 50) | A (percent inhibition at 10 μM lower than 50) |  |
| CNc1cc(Nc2cccn([C@H]3CC[C@H](OC)CC3)c2=O)nc2c(C(=O)N[C@H]3CC[C@@H]3O)cnn12 [I-636] | A (percent inhibition at 10 μM lower than 50) | A (percent inhibition at 10 μM lower than 50) |  |
| CNc1cc(Nc2cccn(C3CCN(CCF)CC3)c2=O)nc2c(C(=O)N[C@H]3CC[C@H]3O)cnn12 [I-896] |  |  | Tyk2 JH1% Inhibition @ 10 μM (Tyk2 kinase domain (DH1); 10 μM compound, 10 μM ATP): A (percent inhibition at 10 μM lower than 50); JAK2 JH1% Inhibition @ 10 μM (JAK2 kinase domain (JH1); 10 μM compound, 10 μM ATP): A (percent inhibition at 10 μM lower than 50) |
| CNc1cc(Nc2cccn(-c3ccccc3F)c2=O)nc2c(C(=O)N[C@H]3CC[C@H]3O)cnn12 [I-939] |  |  | Tyk2 JH1% Inhibition @ 10 μM (Tyk2 kinase domain (DH1); 10 μM compound, 10 μM ATP): A (percent inhibition at 10 μM lower than 50); JAK2 JH1% Inhibition @ 10 μM (JAK2 kinase domain (JH1); 10 μM compound, 10 μM ATP): A (percent inhibition at 10 μM lower than 50) |
| CNc1cc(Nc2cccn([C@H]3CCCOC3)c2=O)nc2c(C(=O)N[C@H]3CC[C@@H]3O)cnn12 [I-724] | A (percent inhibition at 10 μM lower than 50) | A (percent inhibition at 10 μM lower than 50) |  |
